The values that follow come from article PMC9202104 (BMC Biology, 2022).

Read-outs that look alike come from different tables or passages of the source.

Series [1] has as its system ZIKV human strain R103451. In words: Plaque assay, inhibition of ZIKV infection (strain R103451). Format: cell-based. The conditions noted are these: Zika virus, Vero C1008; plaque assay, Vero E6 cells, human strain; read-out: IC50 R103451. On the procedure:
(§1) After removal of the unbound compounds by centrifugation (after addition of 3% PEG-6000), ZIKV was incubated with Vero E6 cells in 24-well plates at 37°C for 1 h. The cells were then washed with PBS, overlaid with DMEM containing 1% carboxymethyl cellulose and 2% FBS, and cultured at 37°C for 4–5 days, followed by being stained with 0.5% crystal violet. […] Plaques in each well were calculated, and IC50 of compounds for each compound was calculated using the CalcuSyn computer program.

The test system of another series is DENV-1-V1792. The experiment in a line: Plaque assay, inhibition of DENV-1 infection in LLC-MK2 cells. The conditions noted are these: Dengue virus, DENV1. Format: cell-based.
The test system of series [2] is ZIKV rhesus macaque strain MR 766. The experiment in a line: Plaque assay, inhibition of ZIKV infection (strain MR 766). To be noted: Zika virus, Vero C1008; plaque assay, Vero E6 cells, rhesus strain; read-out: IC50 MR 766. It is filed as cell-based. The procedure: as §1
In the next series the test system is ZIKV human strain FLR. In words: Plaque assay, inhibition of ZIKV infection (strain FLR). To be noted: Zika virus, Vero C1008; plaque assay, Vero E6 cells, human strain; read-out: IC50 FLR. Format: cell-based. The procedure:
as §1

For the next series, the system named is ZIKV (PAN2016). The experiment in a line: Time-of-addition experiment in Vero E6 cells. To be noted: for inhibition at 15 µM: Zika virus, Vero C1008, Vero E6 cells. It is filed as cell-based, Zika virus. The procedure:
Briefly, Vero E6 cells (10^5/well) and/or ZIKV were incubated in 24-well plates with or without the above compounds (15 μM) for 1 h before, 1 h after, or the same time during infection of ZIKV (the detailed procedures were described below and published previously). The following six conditions of ZIKV infection were tested: (1) condition 1: pretreatment of the virus. […] The plaque assay was performed following the standard protocol described above and before. (2) condition 2: pretreatment of cells. […] The unbound ZIKV was removed, and the cells were cultured and plaques calculated as in condition 1. (3) Condition 3: attachment. […] After removal of the unbound ZIKV and compounds, the cells were cultured and plaques calculated as in condition 1. (4) Condition 4: cotreatment. […] After removal of the unbound virus and compounds, the cells were cultured and plaques were calculated as in condition 1. (5) condition 5: fusion. Cells were incubated with ZIKV (PAN2016, 300 PFU) at 4°C for 1 h for ZIKV attachment. […] The unbound compounds were removed, and the cells were cultured and plaques calculated as in condition 1. (6) Condition 6: post-entry. Cells were incubated with ZIKV (PAN2016, 100 PFU) at 37°C for 1 h for ZIKV entry. […] The unbound compounds were then removed, and the cells were cultured and calculated for plaques as in condition 1. Since variant conditions may affect the formation of plaques, the use of different PFUs can ensure that the number of plaques in the DMSO control group is about 100/well for each condition.

A short description of series [3]: Safety profile in pregnant Ifnar1−/− mice and pups. Format: in vivo. On the procedure:
Briefly, groups of 5 pregnant mice (8–12-week-old, E12-14) were i.p. injected with ST087010 (20 or 40 mg/kg of body weight, 200 μl/mouse), or DMSO (negative control), daily for 4 continuous days.

Series [4] concerns ZIKV human strain PAN2015. The experiment in a line: Plaque assay, inhibition of ZIKV infection (strain PAN2015). Format: cell-based. The conditions noted are these: Zika virus, Vero C1008, Vero E6 cells. On the procedure: as §1
In a further series the test system is DENV-2-V594. In words: Plaque assay, inhibition of DENV-2 infection in LLC-MK2 cells. Format: cell-based. The conditions noted are these: Dengue virus, DENV2.
Series [5] deals with ZIKV human strain PLCal_ZV. In words: Plaque assay, inhibition of ZIKV infection (strain PLCal_ZV). It is filed as cell-based. The conditions noted are these: Zika virus, Vero C1008; plaque assay, Vero E6 cells, human strain; read-out: IC50 PLCal_ZV. The procedure:
as §1

In the next series the target is T1, ZIKV EDIII protein (Zika virus, UniProt A0A024B7W1).
T1 construct: EDIII (residues 298-409 in E protein containing a C-terminal human Fc tag); human Fc (C)
The experiment in a line: ELISA binding to ZIKV EDIII protein. On the procedure: (§2) Briefly, ELISA plates were coated with each protein (1 μg/ml) at 4°C overnight and were then incubated with blocking buffer containing 2% fat-free milk in PBST (0.05% Tween-20) at 37°C for 2 h. The above compounds, or DMSO control, at serial dilutions were added to the plates and incubated at 37°C for 2 h. After three washes using PBST, the plates were incubated at 37°C for 2 h with ZIKV EDIII-specific human mAb ZKA64-LALA (0.5 μg/ml) (for binding to ZIKV full-length E or EDIII protein), or ZIKV NS2B-NS3-specific mouse sera (for binding to NS2B-NS3 protein). After further washes, the plates were incubated with horseradish peroxidase (HRP)-conjugated anti-human IgG-Fab (1:3,000, Abcam, Cambridge, MS, USA) or anti-mouse IgG (1:3,000, Sigma) antibody at 37°C for 1 h. The plates were incubated with substrate TMB (3,3′,5,5′-tetramethylbenzidine) for 1 min, and the reaction was stopped by addition of 1 N H2SO4. Absorbance at 450 nm (A450 values) was measured by an ELISA microplate reader. Percent binding (% binding) to the E, EDIII, or NS2B-NS3 protein was calculated in the presence or absence of serially diluted compounds using the formula ((1-(E/EDIII/NS2B-NS3-compound)/(E/EDIII/NS2B-NS3))×100), based on which EC50 was calculated using the CalcuSyn program.

The next series addresses T2, ZIKV NS2B-NS3 protein (Zika virus, UniProt Q32ZE1).
T2 construct: fused with the genes encoding NS3 protein (residues 1-185) through a linker (Gly4-Thr-Gly4); His6 (C); made in house; host or cells: E. coli
In words: ELISA binding to ZIKV NS2B-NS3 protein. The procedure: as §2

Series [6] concerns ZIKV mosquito strain MEX 2-81. The experiment in a line: Plaque assay, inhibition of ZIKV infection (strain MEX 2-81). It is filed as cell-based. To be noted: Zika virus, Vero C1008; plaque assay, Vero E6 cells, mosquito strain; read-out: IC50 MEX 2-81. On the procedure: as §1
In the next series the test system is Vero E6 cells. The experiment in a line: Cytotoxicity, Cell Counting Kit-8, Vero E6 cells. Format: cell-based. To be noted: African green monkey, 3 days. The procedure: (§3) Briefly, compounds at 2-fold serial dilutions were added to the respective cells (2.0×10^4/well) pre-seeded in 96-well plates. The cells were cultured at 37°C in the presence of 5% CO2 for 3 days, […] incubated with CCK8 solution, followed by measurement of absorbance at 450 nm (A450 value), using a microplate reader (Infinite F200PRO, Tecan, Morrisville, NC, USA). CC50 of compounds was calculated using the CalcuSyn program.

Series [7] can be described thus: Cytotoxicity, Cell Counting Kit-8, Vero E6 cells. To be noted: African green monkey, CC50 Vero E6. Format: cell-based. The procedure:
as §3

T1 sequence (A0A024B7W1 588-699): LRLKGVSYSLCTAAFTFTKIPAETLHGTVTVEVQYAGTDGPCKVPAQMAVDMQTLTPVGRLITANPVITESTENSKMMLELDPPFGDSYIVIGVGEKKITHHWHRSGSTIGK
T2 sequence (Q32ZE1 1499-1683, added parts left off, change not shown): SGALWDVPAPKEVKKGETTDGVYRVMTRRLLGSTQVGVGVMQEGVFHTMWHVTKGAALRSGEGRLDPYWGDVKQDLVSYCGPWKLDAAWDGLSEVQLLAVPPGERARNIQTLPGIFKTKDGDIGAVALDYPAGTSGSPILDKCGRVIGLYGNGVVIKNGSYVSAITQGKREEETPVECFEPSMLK

Consider `Cc1cc2c(C(C)C)c(O)c(O)c(/C=N/n3c(=O)[nH][nH]c3=O)c2c(O)c1-c1c(C)cc2c(C(C)C)c(O)c(O)c(/C=N/n3c(=O)[nH][nH]c3=O)c2c1O` [ST087010], for which the IC50 is 3.6 µM in series [1]; 3.01 ± 0.11 µM in the series with DENV-1-V1792; 3.5 µM in series [2]; 2800 nM in the series on ZIKV human strain FLR; 3.5 µM in series [4]; 3.19 ± 0.01 µM in the series on DENV-2-V594. Further, the IC50 in series [5] was determined as 2200 nM; in series [6] it was 2900 nM. For the same compound, the “Inhibition of ZIKV infection, condition 2: pretreatment of cells” value in the series on ZIKV (PAN2016) (15 μM, Vero E6 cells) is “no, or little”. Besides, the “Inhibition of ZIKV infection, condition 4: cotreatment” value with ZIKV (PAN2016) (15 μM, Vero E6 cells) was “no, or little”. The “Inhibition of ZIKV infection, condition 5: fusion” value in the series with ZIKV (PAN2016) (15 μM, Vero E6 cells) is on record as “no, or little”. Besides, the “Inhibition of ZIKV infection, condition 1: pretreatment of the virus” value in the series with ZIKV (PAN2016) (15 μM, virus incubated with compound at 37°C for 1 h before Vero E6 cells) is recorded as “almost completely inhibited”. Also, the inhibition at 15 µM was under 40% in the series with ZIKV (PAN2016) (4°C 1 h, read-out: Inhibition of ZIKV infection, condition 3: attachment) and under 20% with ZIKV (PAN2016) (read-out: Inhibition of ZIKV infection, condition 6: post-entry). Further, the “Histopathology of liver, spleen, kidney, and brain of mothers and pups” value in series [3] (20 or 40 mg/kg, compared to DMSO) is reported as “did not present pathological changes”. The “Inflammation or cell infiltration in tissues” value in [3] (low and high doses (20 and 40 mg/kg)) is recorded as “no inflammation or cell infiltration”. The “Serum ALT and creatinine levels vs DMSO” value in [3] (pregnant mice, 20 mg/kg, 1 day after injection) is reported as “no significant difference”. For the same compound, the “Serum ALT and creatinine levels” value in series [3] (pregnant mice, 20 or 40 mg/kg, before injection and 4 h, 3 or 5 days after last injection) is “no significant differences”. For the same compound, the EC50 worked out at 6.13 µM at ZIKV EDIII protein and 21.9 µM at ZIKV NS2B-NS3 protein. For the same compound, the midpoint of cytotoxicity in the series on Vero E6 cells, the CC50, lay at 49.6 ± 1.83 µM. In series [7], this compound gave a CC50 at 3 days of 49.6 µM.
